Experimental data published in patent US20240409573A1, “CALICHEAMICIN DERIVATIVES AND ANTIBODY DRUG CONJUGATES THEREOF” (priority 2017, published 2024).

Experiments:
Type in all cases: cell-based
[1] = test system: N87 (gastric cancer) cells, Her2-target expressing; experiment: In vitro cell assay, cell viability by MTS, N87; conditions: 96 h, read-out: Average IC50, N87
Experimental: (§1) Her2-Target expressing (BT474 (breast cancer), N87 (gastric cancer), MDA-MB-361-DYT2 (breast cancer)) or Her2-non-expressing (MDA-MB-468, HT29) cells, or 0033-target expressing HL60, HEL92.1.7, NB4, TF-1 or 0033-non-expressing (Raji) cells were seeded in 96-well cell culture plates for 24 hours before treatment. Cells were treated with 3-fold serially diluted antibody-drug conjugates or free compounds (i.e., no antibody conjugated to the drug) in duplicate at 10 concentrations. Cell viability was determined by CellTiter 96® AQueous One Solution Cell Proliferation MTS Assay (Promega, Madison WI) 96 hours after treatment. Relative cell viability was determined as percentage of untreated control. IC50 values were calculated using a four parameter logistic model #203 with XLfit v4.2 (IDBS, Guildford, Surry, UK). Results are shown below in Table 3 (for payloads), Table 4 (for Herceptin conjugates), and Table 5 (for CD33 conjugates).

[2] = test system: MDA-MB-361-DYT2 (breast cancer) cells, Her2-target expressing; experiment: In vitro cell assay, cell viability by MTS, MDA-MB-361-DYT2; conditions: 96 h, read-out: Average IC50, MDA-MB-361-DYT2
Experimental: as §1

[3] = test system: HT29 cells, Her2-non-expressing; experiment: In vitro cell assay, cell viability by MTS, HT29; conditions: Homo sapiens, HT-29, 96 h, read-out: Average IC50, HT29
Experimental: as §1

[4] = test system: HL60 cells, CD33-target expressing; experiment: In vitro cell assay, cell viability by MTS, HL60; conditions: Homo sapiens, HL-60, 96 h, read-out: Average IC50, HL-60
Experimental: as §1

[5] = test system: HEL92.1.7 cells, CD33-target expressing; experiment: In vitro cell assay, cell viability by MTS, HEL92.1.7; conditions: Homo sapiens, HEL 92.1.7, 96 h, read-out: Average IC50, HEL92.1.7
Experimental: as §1

[6] = test system: NB4 cells, CD33-target expressing; experiment: In vitro cell assay, cell viability by MTS, NB4; conditions: Homo sapiens, NB-4, 96 h, read-out: Average IC50, NB4
Experimental: as §1

[7] = test system: TF-1 cells, CD33-target expressing; experiment: In vitro cell assay, cell viability by MTS, TF-1; conditions: Homo sapiens, TF-1, 96 h, read-out: Average IC50, TF-1
Experimental: as §1

[8] = test system: Raji cells, CD33-non-expressing; experiment: In vitro cell assay, cell viability by MTS, Raji; conditions: Homo sapiens, 96 h, read-out: Average IC50, Raji
Experimental: as §1

Row | Structure (SMILES) | IC50 [1] [nM] | IC50 [2] [nM] | IC50 [3] [nM] | IC50 [4] [nM] | IC50 [5] [nM] | IC50 [6] [nM] | IC50 [7] [nM] | IC50 [8] [nM]
1 | CCN[C@H]1CO[C@@H](O[C@@H]2C(O)[C@H](NO[C@H]3C[C@H](O)[C@H](SC(=O)c4c(C)c(I)c(O[C@@H]5O[C@@H](C)[C@H](O)[C@@H](OC)[C@H]5O)c(OC)c4OC)[C@@H](C)O3)[C@@H](C)O[C@H]2O[C@H]2C#C/C=C\C#C[C@]3(O)CC(=O)C(NC(=O)OC)=C2/C3=C\CSSC(C)(C)CCC(=O)NCCCC[C@H](N)C(=O)O)C[C@@H]1OC (stereo in doubt) [Example P43] | 1.23 | 6.4 | 3.18 | 1.36 | 4.9 | 0.516 | 9.01 | 2.85
2 | CCN[C@H]1CO[C@@H](O[C@@H]2C(O)[C@H](NO[C@H]3C[C@H](O)[C@H](SC(=O)c4c(C)c(I)c(O[C@@H]5O[C@@H](C)[C@H](O)[C@@H](OC)[C@H]5O)c(OC)c4OC)[C@@H](C)O3)[C@@H](C)O[C@H]2O[C@H]2C#C/C=C\C#C[C@]3(O)CC(=O)C(NC(=O)OC)=C2/C3=C\CSSc2ncccc2C(=O)O)C[C@@H]1OC (stereo in doubt) [Example P46] | 0.544 | 2.83 | 0.77 | 0.025 | 0.046 | 0.02 | 0.176 | 0.039
3 | CCN[C@H]1CO[C@@H](O[C@@H]2C(O)[C@H](NO[C@H]3C[C@H](O)[C@H](SC(=O)c4c(C)c(I)c(O[C@@H]5O[C@@H](C)[C@H](O)[C@@H](OC)[C@H]5O)c(OC)c4OC)[C@@H](C)O3)[C@@H](C)O[C@H]2O[C@H]2C#C/C=C\C#C[C@]3(O)CC(=O)C(NC(=O)OC)=C2/C3=C\CSS[C@H](C)CO)C[C@@H]1OC (stereo in doubt) [Example P47] | 1.87 | 6.54 | 1.4 | 0.054 | 0.141 | 0.04 | 0.737 | 0.05
4 | CCN[C@H]1CO[C@@H](O[C@H]2[C@H](O[C@H]3C#C/C=C\C#C[C@]4(O)CC(=O)C(NC(=O)OC)=C3/C4=C\CSSC(C)C)O[C@H](C)[C@@H](NO[C@H]3C[C@H](O)[C@H](SC(=O)c4c(C)c(I)c(O[C@@H]5O[C@@H](C)[C@H](O)[C@@H](OC)[C@H]5O)c(OC)c4OC)[C@@H](C)O3)[C@@H]2O)C[C@@H]1OC [Example P1] | 0.007 | 0.021 | 0.003 | 0.003 | 0.028 | 0.003 | 0.071 | 0.006
5 | CCN[C@H]1CO[C@@H](O[C@H]2[C@H](O[C@H]3C#C/C=C\C#C[C@]4(O)CC(=O)C(NC(=O)OC)=C3/C4=C\CSSc3ccccc3C(=O)O)O[C@H](C)[C@@H](NO[C@H]3C[C@H](O)[C@H](SC(=O)c4c(C)c(I)c(O[C@@H]5O[C@@H](C)[C@H](O)[C@@H](OC)[C@H]5O)c(OC)c4OC)[C@@H](C)O3)[C@@H]2O)C[C@@H]1OC [Example P3] | 0.309 | 1.75 | 0.69 | 0.149 | 0.371 | 0.081 | 1.64 | 0.378
6 | CCN[C@H]1CO[C@@H](O[C@H]2[C@H](O[C@H]3C#C/C=C\C#C[C@]4(O)CC(=O)C(NC(=O)OC)=C3/C4=C\CSSc3ccccn3)O[C@H](C)[C@@H](NO[C@H]3C[C@H](O)[C@H](SC(=O)c4c(C)c(I)c(O[C@@H]5O[C@@H](C)[C@H](O)[C@@H](OC)[C@H]5O)c(OC)c4OC)[C@@H](C)O3)[C@@H]2O)C[C@@H]1OC [Example P4] | 0.086 | 0.033 | 0.094 | 0.017 | 0.036 | 0.011 | 0.184 | 0.056
7 | CCN[C@H]1CO[C@@H](O[C@H]2[C@H](O[C@H]3C#C/C=C\C#C[C@]4(O)CC(=O)C(NC(=O)OC)=C3/C4=C\CSSC(CC(=O)O)C(=O)O)O[C@H](C)[C@@H](NO[C@H]3C[C@H](O)[C@H](SC(=O)c4c(C)c(I)c(O[C@@H]5O[C@@H](C)[C@H](O)[C@@H](OC)[C@H]5O)c(OC)c4OC)[C@@H](C)O3)[C@@H]2O)C[C@@H]1OC (stereo partly drawn) [Example P6] | 1.24 | 1.35 | 1.14 | 0.568 |  | 0.492 | 5.93 | 1.21
8 | CCN[C@H]1CO[C@@H](O[C@H]2[C@H](O[C@H]3C#C/C=C\C#C[C@]4(O)CC(=O)C(NC(=O)OC)=C3/C4=C\CSSC(C)(C)CC(=O)NN)O[C@H](C)[C@@H](NO[C@H]3C[C@H](O)[C@H](SC(=O)c4c(C)c(I)c(O[C@@H]5O[C@@H](C)[C@H](O)[C@@H](OC)[C@H]5O)c(OC)c4OC)[C@@H](C)O3)[C@@H]2O)C[C@@H]1OC [Example P7] | 0.046 | 1.03 | 0.075 | 0.124 | 1.22 | 0.152 | > 90 | 0.161
9 | CCN[C@H]1CO[C@@H](O[C@H]2[C@H](O[C@H]3C#C/C=C\C#C[C@]4(O)CC(=O)C(NC(=O)OC)=C3/C4=C\CSSC(C)(C)[C@H](N)C(=O)O)O[C@H](C)[C@@H](NO[C@H]3C[C@H](O)[C@H](SC(=O)c4c(C)c(I)c(O[C@@H]5O[C@@H](C)[C@H](O)[C@@H](OC)[C@H]5O)c(OC)c4OC)[C@@H](C)O3)[C@@H]2O)C[C@@H]1OC [Example P33] | 1.66 | 1.5 | 0.386 | 0.205 |  |  | 1.09 | 0.261
10 | CCN[C@H]1CO[C@@H](O[C@H]2[C@H](O[C@H]3C#C/C=C\C#C[C@]4(O)CC(=O)C(NC(=O)OC)=C3/C4=C\CSSC(C)(C)CCNC(=O)[C@H](CCCNC(N)=O)NC(=O)[C@@H](NC(C)=O)C(C)C)O[C@H](C)[C@@H](NO[C@H]3C[C@H](O)[C@H](SC(=O)c4c(C)c(I)c(O[C@@H]5O[C@@H](C)[C@H](O)[C@@H](OC)[C@H]5O)c(OC)c4OC)[C@@H](C)O3)[C@@H]2O)C[C@@H]1OC [Example P35] | 14.7 | 2.34 | 3.67 | 2.25 |  |  | 7.5 | 2.1
11 | CCN[C@H]1CO[C@@H](O[C@H]2[C@H](O[C@H]3C#C/C=C\C#C[C@]4(O)CC(=O)C(NC(=O)OC)=C3/C4=C\CSSC(C)(C)CNCCOc3ccccc3)O[C@H](C)[C@@H](NO[C@H]3C[C@H](O)[C@H](SC(=O)c4c(C)c(I)c(O[C@@H]5O[C@@H](C)[C@H](O)[C@@H](OC)[C@H]5O)c(OC)c4OC)[C@@H](C)O3)[C@@H]2O)C[C@@H]1OC [Example P36] | 6.2 | 3.85 | 1.28 | 0.881 |  |  | 6.86 | 1.13
12 | CCN(C(=O)Nc1ccc(CNC(=O)OCC2c3ccccc3-c3ccccc32)cc1)[C@H]1CO[C@@H](O[C@H]2[C@H](O[C@H]3C#C/C=C\C#C[C@]4(O)CC(=O)C(NC(=O)OC)=C3/C4=C\CSSC(C)(C)C)O[C@H](C)[C@@H](NO[C@H]3C[C@H](O)[C@H](SC(=O)c4c(C)c(I)c(O[C@@H]5O[C@@H](C)[C@H](O)[C@@H](OC)[C@H]5O)c(OC)c4OC)[C@@H](C)O3)[C@@H]2O)C[C@@H]1OC [Example P49] | 0.007 | < 0.1 | 0.006 | 0.003 |  |  | 0.051 | 0.002
